As usually defined, the IC50 is the midpoint of a concentration-inhibition curve.

Molecules are shown by their SMILES. Where only a bound is given, the exact number is not on record here.

Among the data in patent US20210177828A1, “TAM FAMILY KINASE /AND CSF1R KINASE INHIBITOR AND USE THEREOF” (Nanjing Transthera Biosciences Co., Ltd., priority 2018, published 2021) are IC50 values, retold here.

One experiment concerns the target T1, Tyro-3 (h) (Homo sapiens, UniProt Q06418).
T1 sequence (Q06418 41-890): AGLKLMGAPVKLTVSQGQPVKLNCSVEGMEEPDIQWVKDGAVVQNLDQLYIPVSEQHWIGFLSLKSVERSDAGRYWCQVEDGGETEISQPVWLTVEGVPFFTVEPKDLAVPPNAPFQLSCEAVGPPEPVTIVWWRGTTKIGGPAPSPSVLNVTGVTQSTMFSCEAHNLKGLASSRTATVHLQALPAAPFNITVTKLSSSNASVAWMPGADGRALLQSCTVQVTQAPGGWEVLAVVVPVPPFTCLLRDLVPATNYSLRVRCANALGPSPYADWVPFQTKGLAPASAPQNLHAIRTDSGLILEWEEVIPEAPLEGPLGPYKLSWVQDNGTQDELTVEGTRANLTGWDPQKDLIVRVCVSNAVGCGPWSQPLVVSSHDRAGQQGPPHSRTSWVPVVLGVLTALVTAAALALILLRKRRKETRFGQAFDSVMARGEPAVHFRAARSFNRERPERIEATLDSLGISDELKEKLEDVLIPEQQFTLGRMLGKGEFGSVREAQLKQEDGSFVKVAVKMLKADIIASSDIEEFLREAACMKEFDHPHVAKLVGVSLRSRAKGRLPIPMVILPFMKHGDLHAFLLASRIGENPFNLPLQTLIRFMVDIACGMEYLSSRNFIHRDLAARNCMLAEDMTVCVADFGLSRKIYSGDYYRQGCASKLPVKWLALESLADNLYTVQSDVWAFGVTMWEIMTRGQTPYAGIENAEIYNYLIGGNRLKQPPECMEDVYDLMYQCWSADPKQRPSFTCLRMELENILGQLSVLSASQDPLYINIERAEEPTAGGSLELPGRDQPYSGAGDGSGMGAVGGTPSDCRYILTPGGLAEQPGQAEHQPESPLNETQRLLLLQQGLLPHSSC
In words: Enzymatic activity assay, Tyro-3 (h), [γ-33P]-ATP filter assay. The note with it: 10 μM ATP, 40 min room temperature; read-out: Inhibitory activity IC50 Tyro-3(h). The class given is biochemical. Here is the method:
(§1) Compounds were each dissolved in 100% DMSO to prepare stock solutions with a maximum concentration of 500 μM.
(§2) Compound working solutions (50×) were prepared by diluting a compound stock solution to a final concentration of 500, 150, 50, 15, 5, 1.5, 0.5, 0.15 and 0.05 μM.
An enzyme solution with a final concentration of 38 nM was prepared by dissolving Tyro3 (h) enzyme in a mixture of 8 mM MOPS (pH 7.0), 0.2 mM EDTA, 1 mM MnCl2 and 250 μM KVEKIGEGTYGVVYK. A Mg/ATP mixture of 10 mM magnesium acetate and 10 μM [γ-^33P]-ATP was used to activate the enzymatic reaction.
(§3) A compound working solution was added to a 384-well plate, with final concentrations of 10,000, 3,000, 1,000, 300, 100, 30, 10, 3 and 1 nM, and then different enzymatic reaction solutions prepared according to the above conditions were added. The reaction solutions were incubated at room temperature for 40 min, and then 0.5% phosphoric acid solutions were added to terminate the reaction. 10 μL of the reaction solution was added dropwise to P30 filter paper, washed 4 times with a 0.425% phosphoric acid solution and once with methanol, and then placed in a scintillation counter for detection. Gray analysis was performed on the results with Image J software, and IC50 values were calculated with GraphPad 5.0 software.

For the next experiment, the target named is CSF1R (h) (Homo sapiens, UniProt P07333). In words: Enzymatic activity assay, CSF1R (h), [γ-33P]-ATP filter assay. The class given is biochemical. The following applies: 10 μM ATP, 40 min room temperature; read-out: Inhibitory activity IC50 CSF1R(h). Here is the method: as §1, §2
Sequence of CSF1R (h) (P07333 20-972): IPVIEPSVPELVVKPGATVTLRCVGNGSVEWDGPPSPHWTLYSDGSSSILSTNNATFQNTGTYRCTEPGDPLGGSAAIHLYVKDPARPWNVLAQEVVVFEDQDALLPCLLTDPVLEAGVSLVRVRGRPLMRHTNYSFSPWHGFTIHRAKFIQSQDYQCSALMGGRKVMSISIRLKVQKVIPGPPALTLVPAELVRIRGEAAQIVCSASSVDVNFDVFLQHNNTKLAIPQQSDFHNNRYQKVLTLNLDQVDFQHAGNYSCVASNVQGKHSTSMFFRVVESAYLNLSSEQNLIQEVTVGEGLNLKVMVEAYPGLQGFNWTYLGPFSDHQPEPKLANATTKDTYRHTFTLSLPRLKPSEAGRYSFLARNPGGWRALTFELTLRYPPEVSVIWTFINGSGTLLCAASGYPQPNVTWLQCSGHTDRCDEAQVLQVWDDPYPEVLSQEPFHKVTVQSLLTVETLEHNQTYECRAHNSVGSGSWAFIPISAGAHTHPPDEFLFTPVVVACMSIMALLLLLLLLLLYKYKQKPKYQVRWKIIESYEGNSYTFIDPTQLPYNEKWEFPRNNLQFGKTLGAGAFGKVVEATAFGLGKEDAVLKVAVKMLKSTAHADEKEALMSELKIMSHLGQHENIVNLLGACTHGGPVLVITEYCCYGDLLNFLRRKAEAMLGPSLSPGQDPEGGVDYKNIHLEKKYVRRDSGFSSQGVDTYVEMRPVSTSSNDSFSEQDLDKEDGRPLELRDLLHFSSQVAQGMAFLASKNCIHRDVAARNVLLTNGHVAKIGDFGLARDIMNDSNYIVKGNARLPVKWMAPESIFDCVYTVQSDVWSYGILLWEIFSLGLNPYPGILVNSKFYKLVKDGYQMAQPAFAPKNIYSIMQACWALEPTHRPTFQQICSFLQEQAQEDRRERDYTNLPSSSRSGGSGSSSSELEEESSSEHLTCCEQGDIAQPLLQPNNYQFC
An enzyme solution with a final concentration of 64 nM was prepared by dissolving CSF1R enzyme in a mixture of 8 mM MOPS (pH 7.0), 0.2 mM EDTA and 250 μM KKSRGDYMTMQIG. A Mg/ATP mixture of 10 mM magnesium acetate and 10 μM [γ-^33P]-ATP was used to activate the enzymatic reaction.
as §3

The target of the next experiment is T2, MDA-MB-231 cell pAxl (Homo sapiens, UniProt P30530).
T2 construct: endogenous in cells; host or cells: MDA-MB-231
T2 sequence (P30530 26-894): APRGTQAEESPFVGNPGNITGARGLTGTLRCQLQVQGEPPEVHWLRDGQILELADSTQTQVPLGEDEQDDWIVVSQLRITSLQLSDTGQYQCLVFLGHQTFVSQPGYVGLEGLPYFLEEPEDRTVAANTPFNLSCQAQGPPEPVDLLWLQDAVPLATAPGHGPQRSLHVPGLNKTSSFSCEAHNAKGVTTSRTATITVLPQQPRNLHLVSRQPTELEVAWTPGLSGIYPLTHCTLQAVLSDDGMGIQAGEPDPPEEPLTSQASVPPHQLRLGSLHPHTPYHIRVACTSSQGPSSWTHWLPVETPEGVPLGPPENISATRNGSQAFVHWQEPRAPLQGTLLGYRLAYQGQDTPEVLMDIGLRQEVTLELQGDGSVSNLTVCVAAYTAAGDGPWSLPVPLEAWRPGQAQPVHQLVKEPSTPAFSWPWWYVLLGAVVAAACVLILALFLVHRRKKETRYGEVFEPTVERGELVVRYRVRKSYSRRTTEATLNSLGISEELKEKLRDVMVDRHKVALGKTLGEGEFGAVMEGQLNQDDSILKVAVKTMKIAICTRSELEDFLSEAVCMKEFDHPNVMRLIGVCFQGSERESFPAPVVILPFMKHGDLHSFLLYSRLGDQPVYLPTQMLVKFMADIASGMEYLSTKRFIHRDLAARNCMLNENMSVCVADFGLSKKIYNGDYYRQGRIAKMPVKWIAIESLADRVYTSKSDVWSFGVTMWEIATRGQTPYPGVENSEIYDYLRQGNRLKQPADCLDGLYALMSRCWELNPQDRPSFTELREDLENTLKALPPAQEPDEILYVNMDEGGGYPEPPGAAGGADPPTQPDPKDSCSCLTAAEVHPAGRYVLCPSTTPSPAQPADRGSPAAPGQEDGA
In words: Inhibitory activity on cell pAxl, MDA-MB-231 cells, hGAS6 stimulation, Western Blot. It is filed as cell-based. The note with it: hGAS6 200 ng/mL. Here is the method: MDA-MB-231 is a breast cancer cell.
MDA-MB-231 cells were inoculated to a 6-well plate (containing 10% FBS DMEM medium, […] cells per well) and adherently cultivated at 37° C., and 5% CO2 for 18 hrs. The cells were starved overnight, and then compound solutions with different concentrations were added. Compounds 1 and 2 had final concentrations of 1.1, 3.3 and 10 nM, and the remaining compounds had final concentrations of 1.1, 3.3, 10 and 30 nM. […] There was a medium containing 1‰DMSO in the negative control well. The cells were incubated at 37° C., and 5% CO2 for 60 min, and then hGAS6 (R&D, final concentration: 200 ng/mL) was added to each well. The cells were further incubated for 60 min, and then the total protein of the cells was extracted for Western Blot experiment. Gray analysis was performed on the results with Image J software, and IC50 values were calculated with GraphPad 5.0 software. The inhibitory activities of the compounds on cell pAxl were detected.
A general note: In western blotting, separated proteins are transferred to a membrane and probed.

With `COc1cc2nccc(Oc3ccc(NC(=O)c4nn(C5CCOCC5)cc(-c5ccc(F)cc5)c4=O)nc3)c2cc1OC` [Compound 34, N-(5-((6,7-dimethoxyquinolin-4-yl)oxy)pyridin-2-yl)-5-(4-fluorophenyl)-4-oxo-1-(tetrahydro-2H-pyran-4-yl)-1,4-dihydropyridazin-3-carboxamide], the IC50 on Tyro-3 (h) was 19 nM; at CSF1R (h), below 200 nM. As to `COc1cc2nccc(Oc3ccc(NC(=O)c4nn(C5CCOCC5)cc(-c5ccc(C)cc5)c4=O)cc3F)c2cc1OC` [Compound 28], the values for the 50% inhibitory concentration (IC50) on Tyro-3 (h) and on CSF1R (h) were 37 nM and below 200 nM, respectively. For `COc1cc2nccc(Oc3ccc(NC(=O)c4cn(CC5CC[S+]([O-])CC5)cc(-c5ccc(C)cc5)c4=O)nc3)c2cc1OC` (centres unmarked) [Compound 8, N-(5-((6,7-dimethoxyquinolin-4-yl)oxy)pyridin-2-yl)-1-((1-oxotetrahydro-2H-thiopyran-4-yl)methyl)-4-oxo-5-(p-tolyl)-1,4-dihydropyridin-3-carboxamide], the half-inhibitory concentration (IC50) at MDA-MB-231 cell pAxl is at most 1 nM; on Tyro-3 (h) it was 117 nM.

With `COc1cc2nccc(Oc3ccc(NC(=O)c4cn(C5CCOCC5)cc(-c5ccc(F)cc5)c4=O)nc3)c2cc1OC` [Compound 27, N-(5-((6,7-dimethoxyquinolin-4-yl)oxy)pyridin-2-yl)-5-(4-fluorophenyl)-4-oxo-1-(tetrahydro-2H-pyran-4-yl)-1,4-dihydropyridin-3-carboxamide], the IC50 on CSF1R (h) was below 200 nM. For `Cc1ccc(-c2cn(C3CCOCC3)nc(C(=O)Nc3ccc(Oc4ccnc5cc6c(cc45)OCO6)cn3)c2=O)cc1` [Compound 29, N-(5-([1,3]dioxolo[4,5-g]quinolin-8-yloxy)pyridin-2-yl)-4-oxo-1-(tetrahydro-2H-pyran-4-yl)-5-(p-tolyl)-1,4-dihydropyridazin-3-carboxamide], the half-inhibitory concentration (IC50) at Tyro-3 (h) is 321 nM. On to `COc1cc2nccc(Oc3ccc(NC(=O)c4cc(-c5ccc(C)cc5)cn(CC5CCOCC5)c4=O)nc3)c2cc1OC` [Compound 13, N-(5-((6,7-dimethoxyquinolin-4-yl)oxy)pyridin 2yl)-2-oxo-1-((tetrahydro-2H-pyran-4-yl)methyl)-5-(p-tolyl)-1,2-dihydropyridin-3-carboxamide], for which the IC50 is at most 3.1 nM on MDA-MB-231 cell pAxl and 94 nM at Tyro-3 (h). Regarding `COc1cc2nccc(Oc3ccc(NC(=O)c4cn(CC5CCSCC5)cc(-c5ccc(C)cc5)c4=O)nc3)c2cc1OC` [Compound 9, N-(5-((6,7-dimethoxyquinolin-4-yl)oxy)pyridin-2-yl)-4-oxo-1-((tetrahydro-2H-thiopyran-4-yl)methyl)-5-(p-tolyl)-1,4-dihydropyridin-3-carboxamide], the IC50 is below 10 nM on MDA-MB-231 cell pAxl and 28 nM on Tyro-3 (h).

For the molecule `COc1cc2nccc(Oc3ccc(NC(=O)c4cn(CC5CCOCC5)c5ccccc5c4=O)nc3)c2cc1OC` [Compound 25, N-(5-((6,7-dimethoxyquinolin-4-yl)oxy)pyridin-2-yl)-4-oxo-1-((tetrahydro-2H-pyran-4-yl)methyl)-1,4-dihydroquinolin-3-carboxamide], the figures for the IC50 against MDA-MB-231 cell pAxl and on Tyro-3 (h) were at most 503 nM and 205 nM, respectively. For `COc1cc2nccc(Oc3ccc(NC(=O)c4cn(CC5CCOCC5)cc(-c5ccc(C)cc5)c4=O)nc3)c2cc1OC` [Compound 1, N-(5-((6,7-dimethoxyquinolin-4-yl)oxy)pyridin-2-yl)-4-oxo-1-((tetrahydro-2H-pyran-4-yl)methyl)-5-(p-tolyl)-1,4-dihydropyridin-3-carboxamide], in that order: below 1.1 nM and 37 nM. `COc1cc2nccc(Oc3ccc(NC(=O)c4cn(CC5CCS(=O)(=O)CC5)cc(-c5ccc(C)cc5)c4=O)nc3)c2cc1OC` [Compound 7, N-(5-((6,7-dimethoxyquinolin-4-yl)oxy)pyridin-2-yl)-1-((1,1-dioxotetrahydro-2H-thiopyran-4-yl)methyl)-4-oxo-5-(p-tolyl)-1,4-dihydropyridin-3-carboxamide]: the IC50 is at most 1.1 nM on MDA-MB-231 cell pAxl and 192 nM on Tyro-3 (h). Consider `COc1cc2nccc(Oc3ccc(NC(=O)c4cn(C5CCOCC5)cc(-c5ccc(C)cc5)c4=O)nc3)c2cc1OC` [Compound 19, N-(5-((6,7-dimethoxyquinolin-4-yl)oxy)pyridin-2-yl)-4-oxo-1-(tetrahydro-2H-pyran-4-yl)-5-(p-tolyl)-1,4-dihydropyridin-3-carboxamide], for which the concentration for half-maximal inhibition (IC50) at MDA-MB-231 cell pAxl was below 1.1 nM; on Tyro-3 (h) it was 34 nM.

`COc1cc2nccc(Oc3ccc(NC(=O)c4cn(CC5CCOCC5)cc(-c5ccc(C)cc5)c4=O)nn3)c2cc1OC` [Compound 24, N-(6-((6,7-dimethoxyquinolin-4-yl)oxy)pyridazin-3-yl)-4-oxo-1-((tetrahydro-2H-pyran-4-yl)methyl)-5-(p-tolyl)-1,4-dihydropyridin-3-carboxamide]: the figures for the half-maximal inhibitory concentration (IC50) against MDA-MB-231 cell pAxl and on Tyro-3 (h) were below 10 nM and 212 nM, respectively.

`Cc1ccc(-c2cn(C3CCOCC3)nc(C(=O)Nc3ccc(Oc4ccnc5cc6c(cc45)OCCO6)cn3)c2=O)cc1` [Compound 30, N-(5-((2,3-dihydro-[1,4]dioxino[2,3-g]quinolin-9-yl)oxy)pyridin-2-yl)-4-oxo-1-(tetrahydro-2H-pyran-4-yl)-5-(p-tolyl)-1,4-dihydropyridazin-3-carboxamide]: the IC50 on Tyro-3 (h) turned out to be 318 nM.
